Laboratory results published in patent US20220125839A1, “COMBINATION OF T-CELL THERAPY AND TARGETED THERAPY FOR TREATING THERAPY-RESISTANT MELANOMA WITH MUTATIONS IN THE BRAF GENE” (H. LEE MOFFITT CANCER CENTER AND RESEARCH INSTITUTE, INC., priority 2019, published 2022).

Key:
lung cancer and lymphoma = conditions: models of lung cancer and lymphoma; cited from earlier work
M6PR = M6PR expression by flow cytometry in different melanoma cell lines treated with dabrafenib; type: cell-based, human; conditions: 16 hr, 1 μM or 5 μM
Description: FIGS. 4A and 4B show WM35 cells resistant to PLX4720. […] Cell viability was measured in experimental replicates in MTT test after 2 and 4 days of treatment. Mean and SD are shown. FIG. 4B show the effect of Dabrafenib on the expression of M6PR. Indicated cells were treated with dabrafenib for 16 hr (1 μM or 5 μM) and M6PR expression was evaluated by flow cytometry. Mean and SD are shown. P values were calculated using two-sided Student's t-test; *-p<0.05; ** p<0.01; ***-p<0.001; ****-p<0.0001 from DMSO treated controls.
M6PR expression levels were detected by flow cytometry. Cells were incubated with Aqua dead cell staining kit (Thermo Fischer Scientific; Cat. no. L34957) for 15 min at 4° C., followed by staining with Alexa Fluor 647-conjugated mouse antibody specific for human IGF2R/M6PR (BD Biosciences; Cat. no. 565105; clone no. MEM-238) or its isotype (BD Biosciences; Cat. no. 557732; clone no. MOPC-21) at 4° C. for 20 minutes. Cells were fixed using 1% paraformaldehyde for 20 minutes at 4° C. before running them on LSR14. Data was analyzed by FlowJo software (Tree Star).

[1] = tested on: BRAFV600E mutant melanoma; conditions: patients with BRAFV600E mutant melanoma; cited from earlier work

Row | Structure (SMILES) | effect on anti-tumor effect of immunotherapy (lung cancer and lymphoma) | expression of M6PR (M6PR) | clinical responses [1]
1 | N.N.[Cl][Pt][Cl] [cisplatin] | potentiate the anti-tumor effect of immunotherapy via up-regulation of M6PR on the tumor cell surface |  | 
2 | CC(C)(C)c1nc(-c2cccc(NS(=O)(=O)c3c(F)cccc3F)c2F)c(-c2ccnc(N)n2)s1 [dabrafenib] |  | substantial up-regulation of the receptor | impressive clinical responses
3 | COc1cccc2c1C(=O)c1c(O)c3c(c(O)c1C2=O)C[C@@](O)(C(=O)CO)C[C@@H]3O[C@H]1C[C@H](N)[C@H](O)[C@H](C)O1 [doxorubicin] | potentiate the anti-tumor effect of immunotherapy via up-regulation of M6PR on the tumor cell surface |  | 
4 | CC(=O)O[C@H]1C(=O)[C@@]2(C)[C@H]([C@H](OC(=O)c3ccccc3)[C@]3(O)C[C@H](OC(=O)[C@H](O)[C@@H](NC(=O)c4ccccc4)c4ccccc4)C(C)=C1C3(C)C)[C@]1(OC(C)=O)CO[C@@H]1C[C@@H]2O [paclitaxel] | potentiate the anti-tumor effect of immunotherapy via up-regulation of M6PR on the tumor cell surface |  | 
